Measurements as given in patent US9045482B2, “Pyrido[4,3-B]indoles and methods of use” (Medivation Technologies, Inc., priority 2009, dated 2015).

What was measured:
Details in all cases: 0.1 μM ligand concentration
[1] = biological target: T1, human recombinant serotonin (5-Hydroxytryptamine) 5-HT2A receptor (Homo sapiens, UniProt P28223); experiment: Serotonin 5-HT2A radioligand binding ([3H]Ketanserin)
T1 construct: expressed in transfected cells; host or cells: Chinese hamster ovary (CHO-K1) cells
T1 sequence (P28223 whole entry): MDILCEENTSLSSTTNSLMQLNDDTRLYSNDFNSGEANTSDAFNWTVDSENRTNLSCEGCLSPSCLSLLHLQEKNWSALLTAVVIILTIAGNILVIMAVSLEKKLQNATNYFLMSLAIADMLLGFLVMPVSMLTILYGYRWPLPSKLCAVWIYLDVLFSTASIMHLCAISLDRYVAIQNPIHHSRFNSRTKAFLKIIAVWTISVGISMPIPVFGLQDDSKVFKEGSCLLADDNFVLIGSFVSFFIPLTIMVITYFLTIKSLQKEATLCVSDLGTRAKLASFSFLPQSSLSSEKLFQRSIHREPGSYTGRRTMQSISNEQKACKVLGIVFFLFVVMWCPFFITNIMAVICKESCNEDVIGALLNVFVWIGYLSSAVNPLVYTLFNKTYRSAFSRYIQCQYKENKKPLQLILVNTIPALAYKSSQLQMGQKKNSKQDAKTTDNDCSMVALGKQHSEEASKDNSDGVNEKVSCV
Method: (1997), 68:1998] in a 50 mM Tris-HCl buffer, pH 7.4, was used. Compounds of the invention were incubated with 0.5 nM [^3H]Ketanserin for 60 min at 25° C. Non-specific binding was estimated in the presence of 1 μM Mianserin. Receptor proteins were filtered and washed, the filters were then counted to determine [^3H]Ketanserin specifically bound. Compounds were screened at 1 μM or lower, using 1% DMSO as vehicle. Biochemical assay results are presented as the percent inhibition of specific binding in Table 4.

[2] = biological target: T2, human recombinant serotonin (5-Hydroxytryptamine) 5-HT6 receptor (Homo sapiens, UniProt P50406); experiment: Serotonin 5-HT6 radioligand binding ([3H]LSD)
T2 construct: expressed in transfected cells; host or cells: human HeLa cells
T2 sequence (P50406 whole entry): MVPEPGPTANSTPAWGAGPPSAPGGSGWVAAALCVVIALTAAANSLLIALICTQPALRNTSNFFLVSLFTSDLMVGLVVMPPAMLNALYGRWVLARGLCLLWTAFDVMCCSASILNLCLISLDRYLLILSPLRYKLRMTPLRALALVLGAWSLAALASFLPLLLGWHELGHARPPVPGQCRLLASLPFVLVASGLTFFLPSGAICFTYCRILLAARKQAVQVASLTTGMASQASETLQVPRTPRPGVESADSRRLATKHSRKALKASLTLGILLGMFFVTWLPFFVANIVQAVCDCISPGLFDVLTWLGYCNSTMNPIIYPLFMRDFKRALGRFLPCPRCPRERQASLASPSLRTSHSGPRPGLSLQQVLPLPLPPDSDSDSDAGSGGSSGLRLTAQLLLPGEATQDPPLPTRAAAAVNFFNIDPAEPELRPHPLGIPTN
Method: (§1) Compounds of the invention were incubated with 1.5 nM [3H]Lysergic acid diethylamide (LSD) for 120 min at 37° C. […] Receptor proteins were filtered and washed, the filters were then counted to determine [3H]LSD specifically bound. Compounds were screened at 1 μM or lower, using 1% DMSO as vehicle. Biochemical assay results are presented as the percent inhibition of specific binding in Table 4.

[3] = biological target: human recombinant serotonin (5-Hydroxytryptamine) 5-HT7 receptor (Homo sapiens, UniProt P34969); experiment: Serotonin 5-HT7 radioligand binding ([3H]LSD)
human recombinant serotonin (5-Hydroxytryptamine) 5-HT7 receptor, sequence (P34969 whole entry): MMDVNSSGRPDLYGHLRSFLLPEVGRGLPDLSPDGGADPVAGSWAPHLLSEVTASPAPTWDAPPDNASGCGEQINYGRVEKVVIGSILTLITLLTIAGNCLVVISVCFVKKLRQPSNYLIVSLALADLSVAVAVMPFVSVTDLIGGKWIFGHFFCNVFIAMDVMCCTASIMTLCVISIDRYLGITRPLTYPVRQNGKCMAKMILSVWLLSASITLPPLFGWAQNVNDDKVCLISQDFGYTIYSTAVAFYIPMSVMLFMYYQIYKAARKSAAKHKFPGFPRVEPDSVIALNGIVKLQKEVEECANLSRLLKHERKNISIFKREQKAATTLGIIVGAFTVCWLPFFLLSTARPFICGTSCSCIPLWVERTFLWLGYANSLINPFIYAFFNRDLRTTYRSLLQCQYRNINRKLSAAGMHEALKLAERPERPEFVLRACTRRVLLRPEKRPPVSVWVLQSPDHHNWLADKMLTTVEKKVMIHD
Method: as §1, with “of” for “of the”, “5.5” for “1.5”, “[^3H]Lysergic” for “[3H]Lysergic”, “2 h” for “120 min”, “25°” for “37°”, “[^3H]LSD” for “[3H]LSD”

SMILES	Percent Inhibition of ligand binding Serotonin 5-HT2A [1] [%]	Percent Inhibition of ligand binding Serotonin 5-HT6 [2] [%]	Percent Inhibition of ligand binding Serotonin 5-HT7 [3] [%]
Cc1cnc2c(c1)c1c(n2CCc2ccc(C(F)(F)F)nc2)CCN2CCCC12 (stereo not drawn) [Compound 43, 10-methyl-7-(2-(6-(trifluoromethyl)pyridin-3-yl)ethyl)-2,3,5,6,7,11c-hexahydro-1H-pyrido[3′,2′:4,5]pyrrolo[2,3-g]indolizine]	7	5	22
FC(F)(F)c1ccc(CCn2c3c(c4cccnc42)C2CCCN2CC3)cn1 (stereo not drawn) [Compound 40, 7-(2-(6-(trifluoromethyl)pyridin-3-yl)ethyl)-2,3,5,6,7,11c-hexahydro-1H-pyrido[3′,2′:4,5]pyrrolo[2,3-g]indolizine]	6	1	10
Cc1cnc2c(c1)c1c(n2CCc2ccc(C(F)(F)F)nc2)CC2CCCN2C1 (stereo not drawn) [Compound 44, 3-methyl-11-(2-(6-(trifluoromethyl)pyridin-3-yl)ethyl)-7,8,9,9a,10,11-hexahydro-5H-pyrido[3′,2′:4,5]pyrrolo[3,2-f]indolizine]	65	9	24
FC(F)(F)c1ccc(CCn2c3c(c4cccnc42)CN2CCCC2C3)cn1 (stereo not drawn) [Compound 39, 11-(2-(6-(trifluoromethyl)pyridin-3-yl)ethyl)-7,8,9,9a,10,11-hexahydro-5H-pyrido[3′,2′:4,5]pyrrolo[3,2-f]indolizine]	24	−5	2
